Data on one compound can be found in patent publication US20050042213A1, “Methods and pharmaceutical compositions for modulating heparanase activation and uses thereof” (InSight Biopharmaceuticals Ltd., priority 2003, published 2005).

Assay [1] concerns the target T1, pro-heparanase (H60) (Homo sapiens, UniProt Q9Y251, K307R).
T1 sequence (Q9Y251 36-543 K307R): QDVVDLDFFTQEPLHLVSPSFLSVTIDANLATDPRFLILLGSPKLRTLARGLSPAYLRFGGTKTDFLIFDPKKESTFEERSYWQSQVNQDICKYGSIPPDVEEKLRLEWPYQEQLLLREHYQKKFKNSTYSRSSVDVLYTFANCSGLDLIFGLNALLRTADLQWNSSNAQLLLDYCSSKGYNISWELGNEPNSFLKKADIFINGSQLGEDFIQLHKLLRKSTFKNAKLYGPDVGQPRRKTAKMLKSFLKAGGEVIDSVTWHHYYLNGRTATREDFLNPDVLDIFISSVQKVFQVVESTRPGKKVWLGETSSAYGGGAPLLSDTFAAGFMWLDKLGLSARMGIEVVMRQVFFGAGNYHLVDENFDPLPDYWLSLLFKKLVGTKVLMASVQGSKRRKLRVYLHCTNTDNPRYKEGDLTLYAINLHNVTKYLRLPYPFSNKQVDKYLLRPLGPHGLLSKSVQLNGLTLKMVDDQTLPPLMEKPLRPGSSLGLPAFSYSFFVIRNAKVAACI
Kind of assay: Circular dichroism spectrometry of pro-heparanase. The note with it: data not shown. The method, then: Circular Dichroism spectrometry—Circular Dichroism spectra were recorded using a JASCO 500 spetropolarimeter. Far Ultraviolet measurements (260-200 nm) were performed in a 0.1 mm demountable cuvette at 25° C., scanning at a rate of 10 nm/min. Pro-heparanase was assayed at a concentration of 0.72 mg/ml in 20 mM sodium phosphate buffer pH 6.8 supplemented with 300 mM NaCl. Effect of heparin on pro-heparanase spectra was determined at a concentration of 100 μM, and the inhibitor was added at a concentration of 15 μM. Base-line recordings were performed in the presence and absence of heparin to correct the pro-heparanase spectra.

In assay [2] the target is T1, pro-heparanase (H60). Kind of assay: Pro-heparanase activation in a cell-based assay (293 cells, DMB assay). The note with it: inhibition of pro-heparanase activation (H60); Table 15.
In assay [3] the target is T2, heparanase (H53) (Homo sapiens, UniProt Q9Y251, K307R).
T2 sequence (Q9Y251 158-543 K307R limits assumed): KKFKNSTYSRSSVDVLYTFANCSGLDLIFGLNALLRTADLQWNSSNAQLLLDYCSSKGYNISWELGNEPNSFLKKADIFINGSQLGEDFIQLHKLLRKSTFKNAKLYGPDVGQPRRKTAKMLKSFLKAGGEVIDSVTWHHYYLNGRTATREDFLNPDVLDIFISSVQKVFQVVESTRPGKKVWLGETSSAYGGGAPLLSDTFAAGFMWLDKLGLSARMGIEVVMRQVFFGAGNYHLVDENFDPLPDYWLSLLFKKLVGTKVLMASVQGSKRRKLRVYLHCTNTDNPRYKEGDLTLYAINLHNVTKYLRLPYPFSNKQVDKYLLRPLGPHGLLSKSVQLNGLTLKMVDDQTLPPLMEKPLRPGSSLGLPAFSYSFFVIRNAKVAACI
T2 sequence (Q9Y251 36-109 limits assumed): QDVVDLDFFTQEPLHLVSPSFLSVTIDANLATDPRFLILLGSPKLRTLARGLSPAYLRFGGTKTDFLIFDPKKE
The assay can be described thus: Heparanase activity inhibition (H53), DMB assay. It is filed as biochemical. The procedure: At the end of the incubation, the cells were lysed by three consecutive cycles of freezing and thawing in a −80° C. Freezer and a 37° C. shaker. Formation of active heparanase was detected by determination of heparanase activity in DMB assay as described in patent application U.S. Pat. No. 6,190,875B.

Assay [4] deals with HUVEC cells. Kind of assay: Cord Formation Assay. It counts as cell-based. The note with it: Homo sapiens; HUVEC cells on matrigel, 24 h; read-out: Inhibition of cord formation IC50. The procedure: (§1) Cord formation and cell migration assays were executed following explicit directives provided by the inventors of the present invention by the National Cancer Institute (Biological Testing Branch, Developmental Therapeutics Program, DCTD, NCI, Fairview Center, Suite 205, 1003 West 7th Street, Frederick, Md. 21701-8527).
Cord Formation Assay—Matrigel (60 μl of 10 mg/ml; Collaborative Lab # 35423) was placed in each well of an ice-cold 96-well plate. The plate was incubated at room temperature for 15 minutes and then transferred to 37° C. for 30 minutes to permit matrigel polymerization. Concomitantly with plate coating, HUVEC cells were diluted in EGM-2 (Clonetic # CC3162) at a concentration of 2×10^5 cells/ml. Each test compound was prepared at a 2 fold higher concentration than desired (5 concentration levels) using the same medium. Cells (500 μl) and 2× drug (500 μl) were mixed and 200 μl of this suspension were placed in duplicates on the polymerized matrigel. Following 24 h incubation, triplicate pictures were taken for each concentration using a Bioquant Image Analysis system. Drug effect (IC50) was assessed by comparing to untreated controls and measuring the length of cords formed and number of junctions.

Assay [5] relates to HUVEC cell. The assay can be described thus: Cell Migration Assay (Boyden chamber). The note with it: Homo sapiens, HUVEC cells, 5 h, read-out: Inhibition of chemotaxis IC50. It counts as cell-based. The procedure: as §1
Cell Migration Assay—Migration was assessed using a 48-well Boyden chamber including 8 μm pore size collagen-coated (10 μg/ml rat tail collagen; Collaborative Laboratories) polycarbonate filters (Osmonics, Inc.). The bottom chamber wells included 27-29 μl of DMEM medium alone (baseline) or medium containing chemo-attractant (bFGF, VEGF or Swiss 3T3 cell conditioned medium). The top chambers included 45 μl of HUVEC cell suspension (1×10^6 cells/ml) prepared in DMEM+1% BSA with or without the test compound. Followinf 5 h of incubation at 37° C., the membrane was rinsed with PBS, fixed and stained in Diff-Quick solutions. The filter was placed on a glass slide with the migrated cells facing down and cells on top were removed using a Kimwipe. The testing was performed in 4-6 replicates where five fields were counted from each well. Negative unstimulated control values were subtracted from stimulated control and drug treated values. Data wad plotted as mean migrated cell±S.D. IC50 was calculated from the plotted data.

Turning to `O=C(O)CCCN1C(=O)C(=Cc2ccc(-c3ccc([N+](=O)[O-])cc3)o2)SC1=S` [Compound 5], the “change in conformation of H60 induced by heparin” value in assay [1] is on record as “prevents the change in conformation”. The IC50 in assay [2] came to 130 nM; in assay [3] (heparanase activity inhibition (H53), NI = no inhibition) it was 12500 nM; in assay [4], 3900 nM; in assay [5], 400 nM. Further, the “heparanase activity inhibition (H53) in addition to inhibition of pro-heparanase activation” value in assay [3] is listed as “dual activity”.
